{"source": "patent US4672036A", "about": "“Pure cultures of Kibdelsporangium aridum Shearer gen. nov., sp. nov. ATCC 39323 and mutants thereof” (SmithKline Beckman Corporation, priority 1985, dated 1987)", "key": {"[1]": {"tested_on": "Staph. aureus SK & F 2777", "type": "cell-based", "details": "Staphylococcus aureus"}, "Staph. aureus 209P": {"tested_on": "Staph. aureus 209P", "type": "cell-based", "details": "Staphylococcus aureus"}, "[2]": {"tested_on": "Pseudomonas aeruginosa HH63", "type": "cell-based", "details": "Pseudomonas aeruginosa, HH63"}, "K. aridum": {"tested_on": "K. aridum", "test": "susceptibility of K. aridum to antibiotics, disk diffusion method", "type": "cell-based, Kibdelosporangium aridum", "details": "disk 30 μg", "method": "Susceptibility of K. aridum to antibiotics was examined by placing BBL susceptibility disks on nutrient agar plates seeded with K. aridum as an overlay. Diameters of the zones of inhibition were measured after incubation for one week at 28° C.\nChlortetracycline ([…]) produced 18 mm zones of inhibition; tetracycline (5 μg) 11-12 mm zones; rifampin (5 μg) 11-15 mm zones; novobiocin (5 μg) 27-28 mm zones. All zones of inhibition contained at least a few resistant colonies."}, "[3]": {"tested_on": "Staph. aureus SK & F 2615", "type": "cell-based", "details": "Staphylococcus aureus"}, "[4]": {"tested_on": "Staph. aureus SK & F 2616", "type": "cell-based", "details": "Staphylococcus aureus"}, "[5]": {"tested_on": "Staph. epidermidis SK & F 2265", "type": "cell-based", "details": "Staphylococcus epidermidis"}, "rumen in vitro model": {"tested_on": "rumen in vitro model", "test": "rumen in vitro model (growth promotant activity)", "parameters": "species or system steer", "method": "The protocol for the rumen in vitro model is analogous to the protocol for the swine in vitro model with the following modifications:\n(1) A 400 kg steer is surgically prepared with a rumen cannula.\n(2) The animal is fed one time a day with the following ration:\n(3) Manipulation of VFA production is described as the production ratio of propionate as a percentage of total VFA produced.\n(4) Sampling of the material, via the cannula, is at 120 minutes post feeding."}, "[6]": {"tested_on": "Staph. aureus SK & F 2596", "type": "cell-based", "details": "Staphylococcus aureus"}, "[7]": {"tested_on": "Staph. aureus SK & F 674-P6 Mutant", "test": "microbe, parasite or virus in culture", "type": "cell-based", "details": "Staphylococcus aureus"}, "C. perfringens MCP-2": {"tested_on": "C. perfringens MCP-2", "test": "microbe, parasite or virus in culture", "details": "Clostridium perfringens, MCP2"}, "[8]": {"tested_on": "Bacteroides fragilis ATCC 25285", "type": "cell-based", "details": "Bacteroides fragilis, ATCC25285"}, "Staph. aureus SK & F 910": {"tested_on": "Staph. aureus SK & F 910", "type": "cell-based", "details": "Staphylococcus aureus"}, "[9]": {"tested_on": "C. perfringens ATCC 19408", "test": "microbe, parasite or virus in culture", "details": "Clostridium perfringens, ATCC19408"}, "[10]": {"tested_on": "E. coli 12140 (SK & F 809)", "type": "cell-based", "details": "Escherichia coli"}, "[11]": {"tested_on": "Staph. aureus SK & F 2590", "type": "cell-based", "details": "Staphylococcus aureus"}, "[12]": {"tested_on": "Staph. aureus SK & F 2682", "type": "cell-based", "details": "Staphylococcus aureus"}}, "note": "Where “and” joins values, the source holds several entries; their conditions need not be identical. Identical values can stand only once. Like-named read-outs stand apart in the source and are kept apart here.", "data": [{"smiles": "CN[C@H](CC(C)C)C(=O)N[C@H]1C(=O)N[C@@H](CC(N)=O)C(=O)N[C@H]2C(=O)N[C@H]3C(=O)N[C@H](C(=O)N[C@H](C(=O)O)c4cc(O)cc(O)c4-c4cc3ccc4O)[C@H](O)c3ccc(c(Cl)c3)Oc3cc2cc(c3O[C@@H]2O[C@H](CO)[C@@H](O)[C@H](O)[C@H]2O[C@H]2C[C@](C)(N)[C@H](O)[C@H](C)O2)Oc2ccc(cc2Cl)[C@H]1O", "note": "[Vancomycin, reference compound]", "values": [{"measurement": "MIC", "setting": "[1]", "result": 0.8, "unit": "mg/L"}, {"measurement": "MIC", "setting": "Staph. aureus 209P", "result": 1.6, "unit": "mg/L"}, {"measurement": "MIC", "setting": "[2]", "result": "> 100", "unit": "mg/L"}, {"measurement": "susceptibility of K. aridum", "setting": "K. aridum", "result": "resistant"}, {"measurement": "MIC", "setting": "[3]", "result": 3.1, "unit": "mg/L"}, {"measurement": "MIC", "setting": "[4]", "result": 0.8, "unit": "mg/L"}, {"measurement": "MIC", "setting": "[5]", "result": 6.3, "unit": "mg/L"}, {"measurement": "Propionate %", "setting": "rumen in vitro model", "result": "127 % Control and 130 % Control and 105 % Control"}, {"measurement": "VFA (total of volatile fatty acids)", "setting": "rumen in vitro model", "result": "107 % Control and 97 % Control"}, {"measurement": "MIC", "setting": "[6]", "result": 3.1, "unit": "mg/L"}, {"measurement": "MIC", "setting": "[7]", "result": "> 100", "unit": "mg/L"}, {"measurement": "MIC", "setting": "C. perfringens MCP-2", "result": 0.5, "unit": "mg/L"}, {"measurement": "MIC", "setting": "[8]", "result": 32, "unit": "mg/L"}, {"measurement": "MIC", "setting": "Staph. aureus SK & F 910; Table A", "result": 1.6, "unit": "mg/L"}, {"measurement": "MIC", "setting": "Staph. aureus SK & F 910; Table B, Methicillin Sensitive", "result": 1.6, "unit": "mg/L"}, {"measurement": "MIC", "setting": "Staph. aureus SK & F 910; Table E", "result": 3.1, "unit": "mg/L"}, {"measurement": "MIC", "setting": "[9]", "result": 1, "unit": "mg/L"}, {"measurement": "MIC", "setting": "[10]; Table A", "result": 100, "unit": "mg/L"}, {"measurement": "MIC", "setting": "[10]; Table E", "result": "> 100", "unit": "mg/L"}, {"measurement": "MIC", "setting": "[11]", "result": 1.6, "unit": "mg/L"}, {"measurement": "MIC", "setting": "[12]", "result": 1.6, "unit": "mg/L"}]}]}
